Values joined by “and” are separate entries in the source; they are usually repeats but may differ in a detail not shown here. Identical values can stand only once. “Also recorded” adds a separate entry of the source. Like-named read-outs stand apart in the source and are kept apart here.
Tests used:
melanoma = conditions: other currently used treatments for melanoma, cited from earlier work
[1] = test system: RERF-LC-AI^IVP human lung tumor cells; assay: Nude mouse xenograft study with fractionated ionizing radiation; format: in vivo
Description: Cells that had been cryopreserved in liquid nitrogen were rapidly thawed at 37° C. and transferred to a tissue culture flask containing growth media and then incubated at 37° C. in a 5% CO2 incubator. […] Cultures were passaged by washing with 10 mL of room temperature phosphate buffered saline (PBS) and then disassociating cells by adding 5 mL 1× trypsin-EDTA and incubating at 37° C. until the cells detached from the surface of the flask. To inactivate the trypsin, 5 mL of growth media was added and then the contents of the flask were centrifuged to pellet the cells. The supernatant was aspirated and the cell pellet was resuspended in 10 mL of growth media and the cell number determined using a hemocytometer.
Animals were housed 4-5/cage in micro-isolators, with a 12 hr/12 hr light/dark cycle, acclimated for at least 1 week prior to use and fed normal laboratory chow ad libitum.

Ramos cells = assay: ROS generation in drug-treated cells, carboxy-H2DCFDA probe, flow cytometry; format: cell-based; conditions: for blocking of the ROS generation induced by Compound 1: Ramos cells pre-treated 1 hour (NAC 1.0 mM or 10 mM; Tiron 500 mM) prior to Compound 1 0.5 μM for 24 hours
Description: In these experiments, we monitored the production of ROS using the cell permeable Carboxy-H2DCFDA probe. When this probe is oxidized by ROS, it emits a green fluorescence that can be detected using flow cytometry or fluorescent microscopy. Ramos cells were treated with Compound 1 (0.5 μM) for 24 hours or pre-treated with 1.0 mM or 10 mM NAC for 1 hour prior to addition of Compound 1 was then washed gently once with warm HBSS/Ca/Mg (GIBCO.14025). 25 μM carboxy-H2DCFDA (Invitrogen. C400) working solution was added to cover the cells, and the cells were incubated for 30 minutes at 37° C., protected from light. The cells were gently washed three times in warm HBSS/Ca/Mg. ROS levels, as determined by fluorescence intensity, were determined by flow cytometry (excitation at 495 nm, emission at 529 nm).
Tiron is a direct scavenger of ROS and is a potent inhibitor of oxidative stress. Ramos cells were pre-treated with 500 mM Tiron 1 hour prior to addition of Compound 1 (0.5 μM) for 24 hours, then measurement of ROS levels was performed as in Example 3.

Hsp70 = Hsp70 induction by Compound 1 in cells pre-treated with Tiron; format: cell-based; conditions: Ramos cells pre-treated with 500 mM Tiron 1 hour prior to Compound 1 0.5 μM for 24 hours
[2] = RECIST, Efficacy Sample (n = 50 combination, n = 27 Paclitaxel)
[3] = Tables 3 and 4, lines of the applicant's own trial

Description for Stage 1V melanoma: A total of 81 people with Stage 1V melanoma were tested in a randomized trial with ratios of 2:1, compound (I)+paclitaxel (53 people): paclitaxel alone (28 people). The dosages administered were 213 mg/m^2 compound (I), 80 mg/m^2 paclitaxel, and the dosage regimen was 3 weekly doses per each 4 week cycle. Patients were treated until progression of the disease. Patients who progressed on paclitaxel alone were given the option to crossover to compound (I)+paclitaxel and were treated until progression. The tumor assessments were performed at baseline, Cycle 2, and every other Cycle thereafter.

## CNC(=O)c1cc(Oc2ccc(NC(=O)Nc3ccc(Cl)c(C(F)(F)F)c3)cc2)ccn1 [Sorafenib]
melanoma
  PR (%): 2.6%

## CCOP(=O)(OCC)C(C)NC(=O)N(CCCl)N=O (stereo not drawn) [Fotemustine]
melanoma
  OR (%): 15.2%
  Survival (months): 7.3 months
  TTP: 55 days

## CC(=O)O[C@H]1C(=O)[C@@]2(C)[C@H]([C@H](OC(=O)c3ccccc3)[C@]3(O)C[C@H](OC(=O)[C@H](O)[C@@H](NC(=O)c4ccccc4)c4ccccc4)C(C)=C1C3(C)C)[C@]1(OC(C)=O)CO[C@@H]1C[C@@H]2O [Paclitaxel]
melanoma; listed as Paclitaxel (Taxol)
  OR (%): 12% and 17.8%
Stage 1V melanoma; Kaplan-Meier estimate, Efficacy Sample, 213 mg/m^2 compound (I), 80 mg/m^2 paclitaxel, 3 weekly doses per 4 week cycle
  Time to Progression (days), 25th percentile: 49.0 days
Stage 1V melanoma; Kaplan-Meier estimate, Efficacy Sample, same regimen
  Time to Progression (days), 75th percentile: 106.0 days
Stage 1V melanoma; Kaplan-Meier estimate, Efficacy Sample, same regimen, log-rank p-value 0.017
  Time to Progression (days), Median: 56.0 days
Stage 1V melanoma; RECIST, Efficacy Sample
  Best Overall Response: Partial Response (PR), percent of patients: (3.7%)
  Best Overall Response: Progressive Disease (PD), percent of patients: (59.3%)
Stage 1V melanoma; [2]
  Best Overall Response: Complete Response (CR), number of patients: 0
  Best Overall Response: Partial Response (PR), number of patients: 1
  Best Overall Response: Progressive Disease (PD), number of patients: 16
  Best Overall Response: Stable Disease (SD), number of patients: 10
Stage 1V melanoma; RECIST, Efficacy Sample, Two-Sided Fisher's Exact Test p-value 0.149
  CR + PR: 3.7%
Stage 1V melanoma; [3]
  CR (%): 0%
  OR (%): 3.7%
  PR (%): 3.7%
  TTP: 57 days

## CN(NC(=O)CC(=O)NN(C)C(=S)c1ccccc1)C(=S)c1ccccc1 [Compound (1)]
[1]; 100 mg/kg Compound 1 5 times per week combined with 0.5 Gy radiation 3 times per week, dosed 420 minutes after irradiation
  % T/C: 47
[1]; 100 mg/kg Compound 1 combined with 0.5 Gy radiation, Nude mice
  toxicity of the combination treatment: not associated with excessive toxicity
[1]; 100 mg/kg Compound 1 i.v. 5 times per week, 15 doses, alone (mock irradiation)
  % T/C: 112
Ramos cells; Ramos cells, Compound 1
  earliest time at which induction of ROS was observed: ≤ 3 h
Ramos cells; Ramos cells, Compound 1 0.5 μM, 24 hours, versus DMSO
  generation of ROS in drug-treated cells: induced the generation of ROS; also recorded: emit more reactive oxygen species than cells treated with DMSO alone

## CC(=O)N[C@@H](CS)C(=O)O [NAC]
Ramos cells
  blocking of the ROS generation induced by Compound 1: almost completely blocked the generation of ROS; also recorded: can be blocked; also recorded: block the production of reactive oxygen species

## CC/C(=C(\c1ccccc1)c1ccc(OCCN(C)C)cc1)c1ccccc1 [Tamoxifen]
melanoma
  CR (%): 1%
  OR (%): 4.9%
  PR (%): 3.9%

## O=S(=O)(O)c1cc(O)c(O)c(S(=O)(=O)O)c1 [Tiron]
Hsp70
  blocking of the Hsp70 induction by Compound 1: blocked; also recorded: blocks the induction of Hsp70
Ramos cells
  blocking of the ROS generation induced by Compound 1: blocked the ability of Compound 1 to generate ROS; also recorded: block the production of reactive oxygen species

From patent US7939564B2, “Combination with bis(thiohydrazide amides) for treating cancer” (Synta Pharmaceuticals Corp., priority 2006, dated 2011)
